Source: patent US10201547B2, “Method of treatment of aggression” (Supernus Pharmaceuticals, Inc., priority 2008, dated 2019)

Experiments:
[1] = biological target: T1, D2S(h) (Homo sapiens, UniProt P14416); experiment: D2S(h) displacement (radioligand binding) assay, [3H]spiperone
[2] = biological target: T2, D4.4 (Homo sapiens, UniProt P21917); experiment: D4.4 displacement assay; format: binding; settings: concentration 1.0E−05M
T2 sequence (P21917 1-419): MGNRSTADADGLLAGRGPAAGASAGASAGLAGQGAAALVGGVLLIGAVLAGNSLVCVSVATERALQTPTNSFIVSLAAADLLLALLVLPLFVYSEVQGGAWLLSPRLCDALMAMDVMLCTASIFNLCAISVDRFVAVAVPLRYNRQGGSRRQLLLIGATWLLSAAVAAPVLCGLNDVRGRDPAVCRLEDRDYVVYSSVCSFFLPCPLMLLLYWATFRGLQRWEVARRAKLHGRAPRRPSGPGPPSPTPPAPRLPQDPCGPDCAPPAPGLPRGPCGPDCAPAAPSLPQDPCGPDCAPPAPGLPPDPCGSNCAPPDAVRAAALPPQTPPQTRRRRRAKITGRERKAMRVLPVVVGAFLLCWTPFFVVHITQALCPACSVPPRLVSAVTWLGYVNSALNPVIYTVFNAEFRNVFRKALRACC

[3] = biological target: T3, human D5 receptor (Homo sapiens, UniProt P21918); experiment: D5(h) displacement (radioligand binding) assay, [3H]SCH 23390, recombinant D5 receptors in GH4 cell line
T3 construct: expressed in transfected cells; host or cells: GH4 cell line
T3 sequence (P21918 whole entry): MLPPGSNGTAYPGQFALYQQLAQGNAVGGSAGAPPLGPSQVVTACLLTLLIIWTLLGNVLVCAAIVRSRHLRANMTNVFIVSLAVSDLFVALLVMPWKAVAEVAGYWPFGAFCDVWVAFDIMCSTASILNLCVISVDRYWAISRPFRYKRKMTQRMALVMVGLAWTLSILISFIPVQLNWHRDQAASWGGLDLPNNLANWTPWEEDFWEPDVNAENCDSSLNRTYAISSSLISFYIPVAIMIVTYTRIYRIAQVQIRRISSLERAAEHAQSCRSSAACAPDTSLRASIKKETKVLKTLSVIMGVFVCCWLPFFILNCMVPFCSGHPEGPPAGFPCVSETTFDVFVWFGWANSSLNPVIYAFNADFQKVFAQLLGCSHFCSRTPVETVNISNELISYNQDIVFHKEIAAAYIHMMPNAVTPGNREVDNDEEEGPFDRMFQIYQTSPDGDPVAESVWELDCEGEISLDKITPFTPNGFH
Procedure: A heterologous competition assay was designed for a receptor affinity screening of molindone. Recombinant D5 receptors were expressed in a GH4 cell line and specific binding was characterized by displacement of another molecule with affinity for the D5 receptor (the “ligand”). “Specific binding” refers here to the difference in the binding of the ligand to the receptors in the presence and absence of an excess of the active agent. An initial screen was performed with […] molindone.
The affinity of molindone for the D5 receptor was further characterized by determining the IC50, or concentration that inhibits 50% of control specific binding. For this experiment, a range of molindone concentrations was selected for the ligand blocking assay. The IC50 was determined using non-linear regression analysis of the competition curves using Hill equation curve fitting. The inhibition constants Ki, wherein Ki is defined as the concentration of the competing ligand (molindone) that will bind to half the binding sites at equilibrium in the absence of radioligand or other competitors, were calculated using Cheng Prusoff equation.

[4] = biological target: T1, D2S(h); experiment: D2S(h) antagonist effect, cAMP HTRF; format: cell-based
[5] = biological target: T3, human D5 receptor; experiment: D5(h) antagonist effect, cAMP HTRF; format: cell-based; settings: for Agonist Response % of Control, 1st / Agonist Response % of Control, 2nd / Agonist Response % of Control, Mean: antagonist effect
Excerpt: (§1) The final step of the assay was to characterize whether the binding is of an agonist or antagonist nature. For the D5 receptor, this was accomplished through an assay that examined the agonist effect on the D5 receptor, i.e., the generation of cAMP or the blockade of this effect when stimulated by a D5 agonist, dopamine. This was also done with a range of concentrations to determine the relative agonist vs antagonist binding Ki. The EC50 values (concentration producing a half-maximal specific response) and IC50 values (a concentration causing a half-maximal inhibition of the control-specific agonist response) were determined by non-linear regression analysis of the concentration-response curves generated with mean replicate values using Hill equation curve fitting. The apparent dissociation constants for antagonists Kb were calculated using the modified Cheng Prusoff equation.

[6] = biological target: T3, human D5 receptor; experiment: D5(h) agonist effect, cAMP HTRF; format: cell-based; settings: control 10 μM dopamine
Excerpt: as §1

[7] = Randomized, multicenter, parallel group dose-ranging study in children with ADHD and persistent serious conduct problems; format: in vivo, human; parameters: NCBRF-TIQ Conduct Problem Subscale Score, Visit 12 Mean / Mean Reduction from Baseline in NCBRF-TIQ Conduct Problem Subscale Score: scale not given here; settings: for NCBRF-TIQ Conduct Problem Subscale Score, Visit 12 Mean: 6 weeks at target dose
Procedure: Effectiveness, safety and tolerability of molindone was evaluated in a randomized, multicenter, parallel group dose-ranging study in children with ADHD and persistent serious conduct problems. Subjects were randomized based on weight at baseline to 1 of 4 treatment groups. The dosing for subjects with weight of less than 30 kg was initiated at 1.67 mg/day and 3.34 mg/day for subjects weighing 30 kg or more. A titration schedule was followed until the target dose (Treatment group 1, 2, 3 or 4) was reached. Subjects remained at target dose for 6 weeks (Table 9). [table]

[8] = D5(h), test concentration 1.0E−04 M, dopamine 100 nM
[9] = D5(h), test concentration 1.0E−05 M, dopamine 100 nM
[10] = D5(h), test concentration 1.0E−06 M, dopamine 100 nM
[11] = D5(h), test concentration 1.0E−07 M, dopamine 100 nM
[12] = D5(h), test concentration 2.0E−05 M, dopamine 100 nM
[13] = D5(h), test concentration 3.0E−06 M, dopamine 100 nM
[14] = D5(h), test concentration 3.0E−07 M, dopamine 100 nM
[15] = D5(h), test concentration 5.0E−05 M, dopamine 100 nM

T1 sequence (P14416 1-414 isoform P14416-2): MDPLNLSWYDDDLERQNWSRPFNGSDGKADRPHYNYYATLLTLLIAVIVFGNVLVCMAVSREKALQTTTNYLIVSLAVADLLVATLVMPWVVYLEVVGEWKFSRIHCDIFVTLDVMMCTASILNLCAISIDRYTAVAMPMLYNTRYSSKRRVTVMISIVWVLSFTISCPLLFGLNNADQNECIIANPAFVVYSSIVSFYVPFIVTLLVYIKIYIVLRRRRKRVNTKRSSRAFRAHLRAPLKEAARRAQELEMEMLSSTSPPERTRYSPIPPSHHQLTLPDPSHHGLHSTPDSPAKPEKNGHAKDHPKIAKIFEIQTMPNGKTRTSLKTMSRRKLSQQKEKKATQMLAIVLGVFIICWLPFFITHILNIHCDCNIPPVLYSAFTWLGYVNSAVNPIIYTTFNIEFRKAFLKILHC

## CCc1c(C)[nH]c2c1C(=O)C(CN1CCOCC1)CC2 (stereo not drawn) [molindone]
[1]; D2s binding, Cheng Prusoff, read-out: K1
  Ki: 0.017 µM
[1]; D2s binding, Hill equation curve fitting
  n(H): 1.7
[1]; D2s, concentration 1.0E−05M
  % Inhibition of control specific binding: 98%
[2]
  % Inhibition of control specific binding: 38%
[3]; D5 binding
  IC50: 5.2 µM
[3]; D5 binding, Hill equation curve fitting
  n(H): 1.2
[3]; D5 receptor
  Ki: 2.4 µM
[3]; molindone 10^−5 μM, read-out: inhibition of the SCH23390 binding at the D5 receptor
  inhibition at 10 pM: 59%
[4]; dopamine 30 nM
  IC50: 0.068 µM
[4]; modified Cheng Prusoff
  Kb: 0.0047 µM
[5]; D5(h), dopamine 100 nM
  IC50: 5.3 µM
[5]; D5(h), modified Cheng Prusoff
  Kb: 0.92 µM
[5]; D5 receptor, cAMP
  nature of the binding/activity at the D5 receptor (agonist or antagonist): specific antagonist activity
[5]; [8]
  Agonist Response % of Control, 1st: 7%
  Agonist Response % of Control, 2nd: 4%
  Agonist Response % of Control, Mean: 5.6%
[5]; [9]
  Agonist Response % of Control, 1st: 40%
  Agonist Response % of Control, 2nd: 36%
  Agonist Response % of Control, Mean: 38.4%
[5]; [10]
  Agonist Response % of Control, 1st: 98%
  Agonist Response % of Control, 2nd: 95%
  Agonist Response % of Control, Mean: 96.4%
[5]; [11]
  Agonist Response % of Control, 1st: 107%
  Agonist Response % of Control, 2nd: 115%
  Agonist Response % of Control, Mean: 111.0%
[5]; [12]
  Agonist Response % of Control, 1st: 19%
  Agonist Response % of Control, 2nd: 20%
  Agonist Response % of Control, Mean: 19.6%
[5]; [13]
  Agonist Response % of Control, 1st: 67%
  Agonist Response % of Control, 2nd: 66%
  Agonist Response % of Control, Mean: 66.7%
[5]; [14]
  Agonist Response % of Control, 1st: 90%
  Agonist Response % of Control, 2nd: 95%
  Agonist Response % of Control, Mean: 92.9%
[5]; [15]
  Agonist Response % of Control, 1st: 4%
  Agonist Response % of Control, 2nd: 11%
  Agonist Response % of Control, Mean: 7.3%
[6]; test concentration 1.0E−04 M
  Agonist Response % of Control, 1st: 1%
  Agonist Response % of Control, 2nd: 4%
  Agonist Response % of Control, Mean: 2.1%
[6]; test concentration 1.0E−05 M
  Agonist Response % of Control, 1st: −1%
  Agonist Response % of Control, 2nd: 2%
  Agonist Response % of Control, Mean: 0.6%
[6]; test concentration 1.0E−06 M
  Agonist Response % of Control, 1st: 0%
  Agonist Response % of Control, 2nd: 0%
  Agonist Response % of Control, Mean: 0.1%
[6]; test concentration 1.0E−07 M
  Agonist Response % of Control, 1st: 2%
  Agonist Response % of Control, 2nd: 2%
  Agonist Response % of Control, Mean: 2.1%
[6]; test concentration 2.0E−05 M
  Agonist Response % of Control, 1st: −2%
  Agonist Response % of Control, 2nd: 2%
  Agonist Response % of Control, Mean: 0.2%
[6]; test concentration 3.0E−06 M
  Agonist Response % of Control, 1st: 3%
  Agonist Response % of Control, 2nd: 4%
  Agonist Response % of Control, Mean: 3.3%
[6]; test concentration 3.0E−07 M
  Agonist Response % of Control, 1st: 4%
  Agonist Response % of Control, 2nd: −1%
  Agonist Response % of Control, Mean: 1.8%
[6]; test concentration 5.0E−05 M
  Agonist Response % of Control, 1st: 1%
  Agonist Response % of Control, 2nd: −2%
  Agonist Response % of Control, Mean: −0.7%
[7]; Treatment 1: 5 mg/day (<30 kg), 10 mg/day (≥30 kg)
  NCBRF-TIQ Conduct Problem Subscale Score, Visit 12 Mean: 13.40
[7]; Treatment 1: 5 mg/day (<30 kg), 10 mg/day (≥30 kg), baseline mean 20.35
  Mean Reduction from Baseline in NCBRF-TIQ Conduct Problem Subscale Score: 6.95
[7]; Treatment 2: 10 mg/day (<30 kg), 20 mg/day (≥30 kg)
  NCBRF-TIQ Conduct Problem Subscale Score, Visit 12 Mean: 17.00
[7]; Treatment 2: 10 mg/day (<30 kg), 20 mg/day (≥30 kg), baseline mean 25.74
  Mean Reduction from Baseline in NCBRF-TIQ Conduct Problem Subscale Score: 8.74
[7]; Treatment 3: 15 mg/day (<30 kg), 30 mg/day (≥30 kg)
  NCBRF-TIQ Conduct Problem Subscale Score, Visit 12 Mean: 17.79
[7]; Treatment 3: 15 mg/day (<30 kg), 30 mg/day (≥30 kg), baseline mean 26.00
  Mean Reduction from Baseline in NCBRF-TIQ Conduct Problem Subscale Score: 8.21
[7]; Treatment 4: 20 mg/day (<30 kg), 40 mg/day (≥30 kg)
  NCBRF-TIQ Conduct Problem Subscale Score, Visit 12 Mean: 11.65
[7]; Treatment 4: 20 mg/day (<30 kg), 40 mg/day (≥30 kg), baseline mean 25.95
  Mean Reduction from Baseline in NCBRF-TIQ Conduct Problem Subscale Score: 14.30
[7]; all four treatment groups
  Side effects: mild, self-limiting and within the limits of tolerability
  discontinuation because of side effects: no subjects discontinued the study because of the side effects
[7]; children with ADHD and persistent serious conduct problems
  efficacy signal towards reducing Conduct Problem Subscale scores: statistically significant efficacy signal
